The molecules below were run on GST-Bcl-2 (assay: TR-FRET binding assay, Bcl-2). Settings: TR-FRET Ki values.
How it was run: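 Ki values come from Wang's competitive-binding equation applied to TR-FRET signal (excitation 340/35 nm; emission 520/525 nm F-Bak peptide, 495/510 nm Tb antibody). Protein, probe and antibody incubated with compound 3 h at room temperature; dilution series began at 50 μM as 2× stock in 10% DMSO.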

SMILES | Binding selectivity ratio (Bcl-XL Ki/Bcl-2 Ki)
CC1(C)CCC(CN2CCN(c3ccc(C(=O)NS(=O)(=O)c4ccc(NCC5CN(S(C)(=O)=O)CCO5)c([N+](=O)[O-])c4)c(Oc4cccc5[nH]cnc45)c3)CC2)=C(c2ccc(Cl)cc2)C1 (stereo not shown) [EXAMPLE 458, 2-(1H-benzimidazol-4-yloxy)-4-(4-{[2-(4-chlorophenyl)-4,4-dimethylcyclohex-1-en-1-yl]methyl}piperazin-1-yl)-N-{[4-({[4-(methylsulfonyl)morpholin-2-yl]methyl}amino)-3-nitrophenyl]sulfonyl}benzamide] | 237.24
CC(C1=C(c2ccc(Cl)cc2)CC(C)(C)CC1)N1CCN(c2ccc(C(=O)NS(=O)(=O)c3ccc(NN4CCN(C)CC4)c([N+](=O)[O-])c3)c(Oc3ccc4[nH]ccc4c3)c2)CC1 (stereo not shown) [EXAMPLE 254, 4-(4-{1-[2-(4-chlorophenyl)-4,4-dimethylcyclohex-1-en-1-yl]ethyl}piperazin-1-yl)-2-(1H-indol-5-yloxy)-N-({4-[(4-methylpiperazin-1-yl)amino]-3-nitrophenyl}sulfonyl)benzamide] | 421.7
CC1(C)CCC(CN2CCN(c3ccc(C(=O)NS(=O)(=O)c4ccc(NCCC#N)c([N+](=O)[O-])c4)c(Oc4cccc5[nH]ccc45)c3)CC2)=C(c2ccc(Cl)cc2)C1 [EXAMPLE 320, 4-(4-{[2-(4-chlorophenyl)-4,4-dimethylcyclohex-1-en-1-yl]methyl}piperazin-1-yl)-N-({4-[(2-cyanoethyl)amino]-3-nitrophenyl}sulfonyl)-2-(1H-indol-4-yloxy)benzamide] | 103.6
O=C(NS(=O)(=O)c1ccc(NCC2CCOCC2)c([N+](=O)[O-])c1)c1ccc(N2CCN(Cc3cc(OCCO)ccc3-c3ccc(Cl)cc3)CC2)cc1Oc1cccc2[nH]ccc12 [EXAMPLE 213, 4-(4-{[4′-chloro-4-(2-hydroxyethoxy)-1,1′-biphenyl-2-yl]methyl}piperazin-1-yl)-2-(1H-indol-4-yloxy)-N-({3-nitro-4-[(tetrahydro-2H-pyran-4-ylmethyl)amino]phenyl}sulfonyl)benzamide] | >66000
O=C(NS(=O)(=O)c1ccc(NCCCN2CCOCC2)c([N+](=O)[O-])c1)c1ccc(N2CCN(Cc3ccccc3-c3ccc(Cl)cc3)CC2)cc1Oc1ccc2ccccc2c1 [Example 36, 4-{4-[(4′-chloro-1,1′-biphenyl-2-yl)methyl]piperazin-1-yl}-N-({4-[(3-morpholin-4-ylpropyl)amino]-3-nitrophenyl}sulfonyl)-2-(2-naphthyloxy)benzamide] | 11.3
CC1(C)CCC(CN2CCN(c3ccc(C(=O)NS(=O)(=O)c4ccc(NCC5(N)CCOCC5)c([N+](=O)[O-])c4)c(Oc4ccc5[nH]ccc5c4)c3)CC2)=C(c2ccc(Cl)cc2)C1 [EXAMPLE 188, N-[(4-{[(4-aminotetrahydro-2H-pyran-4-yl)methyl]amino}-3-nitrophenyl)sulfonyl]-4-(4-{[2-(4-chlorophenyl)-4,4-dimethylcyclohex-1-en-1-yl]methyl}piperazin-1-yl)-2-(1H-indol-5-yloxy)benzamide] | 1135.4
CN1CCN(CCNc2ccc(S(=O)(=O)NC(=O)c3ccc(N4CCN(Cc5ccccc5-c5ccc(Cl)cc5)CC4)cc3Oc3ccccc3)cc2[N+](=O)[O-])CC1 [Example 85, 4-{4-[(4′-chloro-1,1′-biphenyl-2-yl)methyl]piperazin-1-yl}-N-[(4-{[2-(4-methylpiperazin-1-yl)ethyl]amino}-3-nitrophenyl)sulfonyl]-2-phenoxybenzamide] | 48.8
CC1(C)CCC(CN2CCN(c3ccc(C(=O)NS(=O)(=O)c4ccc(NCC5CN(CC#N)CCO5)c([N+](=O)[O-])c4)c(Oc4cccc5[nH]cnc45)c3)CC2)=C(c2ccc(Cl)cc2)C1 (stereo not shown) [EXAMPLE 431, 2-(1H-benzimidazol-4-yloxy)-4-(4-{[2-(4-chlorophenyl)-4,4-dimethylcyclohex-1-en-1-yl]methyl}piperazin-1-yl)-N-{[4-({[4-(cyanomethyl)morpholin-2-yl]methyl}amino)-3-nitrophenyl]sulfonyl}benzamide] | 677.36
CN(C)CCOc1ccc(-c2ccc(Cl)cc2)c(CN2CCN(c3ccc(C(=O)NS(=O)(=O)c4ccc(NN5CCN(C)CC5)c([N+](=O)[O-])c4)c(Oc4cccc5[nH]ccc45)c3)CC2)c1 [EXAMPLE 274, 4-[4-({4′-chloro-4-[2-(dimethylamino)ethoxy]-1,1′-biphenyl-2-yl}methyl)piperazin-1-yl]-2-(1H-indol-4-yloxy)-N-({4-[(4-methylpiperazin-1-yl)amino]-3-nitrophenyl}sulfonyl)benzamide] | 244.6
COCCOCCSc1ccc(S(=O)(=O)NC(=O)c2ccc(N3CCN(CC4=C(c5ccc(Cl)cc5)CC(C)(C)CC4)CC3)cc2Oc2cccc3[nH]ccc23)cc1[N+](=O)[O-] [EXAMPLE 381, 4-(4-{[2-(4-chlorophenyl)-4,4-dimethylcyclohex-1-en-1-yl]methyl}piperazin-1-yl)-2-(1H-indol-4-yloxy)-N-[(4-{[2-(2-methoxyethoxy)ethyl]thio}-3-nitrophenyl)sulfonyl]benzamide] | 448.3
CC1(C)CCC(CN2CCN(c3ccc(C(=O)NS(=O)(=O)c4cnc(OC[C@H]5CC[C@H](O)CC5)c(Cl)c4)c(Oc4cccc5[nH]ncc45)c3)CC2)=C(c2ccc(Cl)cc2)C1 [EXAMPLE 421, Trans-N-({5-chloro-6-[(4-hydroxycyclohexyl)methoxy]pyridin-3-yl}sulfonyl)-4-(4-{[2-(4-chlorophenyl)-4,4-dimethylcyclohex-1-en-1-yl]methyl}piperazin-1-yl)-2-(1H-indazol-4-yloxy)benzamide] | 2090
CC1(C)CCC(CN2CCN(c3ccc(C(=O)NS(=O)(=O)c4ccc(OCC5(F)CCOCC5)c(Cl)c4)c(Oc4cccc5[nH]ncc45)c3)CC2)=C(c2ccc(Cl)cc2)C1 [EXAMPLE 464, N-({3-chloro-4-[(4-fluorotetrahydro-2H-pyran-4-yl)methoxy]phenyl}sulfonyl)-4-(4-{[2-(4-chlorophenyl)-4,4-dimethylcyclohex-1-en-1-yl]methyl}piperazin-1-yl)-2-(1H-indazol-4-yloxy)benzamide] | 6432
CC1(C)CCC(CN2CCN(c3ccc(C(=O)NS(=O)(=O)c4ccc(NCC5(F)CCOCC5)c([N+](=O)[O-])c4)c(Oc4cccc5[nH]ncc45)c3)CC2)=C(c2ccc(Cl)cc2)C1 [EXAMPLE 409, 4-(4-{[2-(4-chlorophenyl)-4,4-dimethylcyclohex-1-en-1-yl]methyl}piperazin-1-yl)-N-[(4-{[(4-fluorotetrahydro-2H-pyran-4-yl)methyl]amino}-3-nitrophenyl)sulfonyl]-2-(1H-indazol-4-yloxy)benzamide] | 1748.5
CN(C)CCCNc1ccc(S(=O)(=O)NC(=O)c2ccc(N3CCN(Cc4ccccc4-c4ccc(Cl)cc4)CC3)cc2Oc2ccc3[nH]ccc3c2)cc1S(=O)(=O)C(F)(F)F [Example 64, 4-{4-[(4′-chloro-1,1′-biphenyl-2-yl)methyl]piperazin-1-yl}-N-({4-{[3-(dimethylamino)propyl]amino}-3-[(trifluoromethyl)sulfonyl]phenyl}sulfonyl)-2-(1H-indol-5-yloxy)benzamide] | 77.1
CC1(C)CCC(CN2CCN(c3ccc(C(=O)NS(=O)(=O)c4ccc(N[C@H]5CC[C@H](N6CCOCC6)CC5)c([N+](=O)[O-])c4)c(Oc4ccc5[nH]ccc5c4)c3)CC2)=C(c2ccc(Cl)cc2)C1 [Example 178, Trans-4-(4-{[2-(4-chlorophenyl)-4,4-dimethylcyclohex-1-en-1-yl]methyl}piperazin-1-yl)-2-(1H-indol-5-yloxy)-N-({4-[(4-morpholin-4-ylcyclohexyl)amino]-3-nitrophenyl}sulfonyl)benzamide] | >2915.8
CC(C)C[C@@H](CO)Nc1ccc(S(=O)(=O)NC(=O)c2ccc(N3CCN(CC4=C(c5ccc(Cl)cc5)CC(C)(C)CC4)CC3)cc2Oc2ccc3[nH]ccc3c2)cc1[N+](=O)[O-] [EXAMPLE 369, 4-(4-{[2-(4-chlorophenyl)-4,4-dimethylcyclohex-1-en-1-yl]methyl}piperazin-1-yl)-N-[(4-{[(1S)-1-(hydroxymethyl)-3-methylbutyl]amino}-3-nitrophenyl)sulfonyl]-2-(1H-indol-5-yloxy)benzamide] | >0.8
COCCNc1ccc(S(=O)(=O)NC(=O)c2ccc(N3CCN(CC4=C(c5ccc(Cl)cc5)CC(C)(C)CC4)CC3)cc2Oc2cccc3[nH]ccc23)cc1S(=O)(=O)C(F)(F)F [EXAMPLE 309, 4-(4-{[2-(4-chlorophenyl)-4,4-dimethylcyclohex-1-en-1-yl]methyl}piperazin-1-yl)-2-(1H-indol-4-yloxy)-N-({4-[(2-methoxyethyl)amino]-3-[(trifluoromethyl)sulfonyl]phenyl}sulfonyl)benzamide] | >149.4
CN(C)CC(=O)N1CCO[C@H](COc2ncc(S(=O)(=O)NC(=O)c3ccc(N4CCN(CC5=C(c6ccc(Cl)cc6)CC(C)(C)CC5)CC4)cc3Oc3cccc4[nH]cnc34)cc2Cl)C1 [EXAMPLE 423, 2-(1H-benzimidazol-4-yloxy)-N-[(5-chloro-6-{[(2S)-4-(N,N-dimethylglycyl)morpholin-2-yl]methoxy}pyridin-3-yl)sulfonyl]-4-(4-{[2-(4-chlorophenyl)-4,4-dimethylcyclohex-1-en-1-yl]methyl}piperazin-1-yl)benzamide] | 756.62
CC1(C)CCC(CN2CCN(c3ccc(C(=O)NS(=O)(=O)c4ccc(NC5CCN(C6CCOCC6)CC5)c([N+](=O)[O-])c4)c(Oc4cccnc4)c3)CC2)=C(c2ccc(Cl)cc2)C1 [EXAMPLE 398, 4-(4-{[2-(4-chlorophenyl)-4,4-dimethylcyclohex-1-en-1-yl]methyl}piperazin-1-yl)-N-({3-nitro-4-[(1-tetrahydro-2H-pyran-4-ylpiperidin-4-yl)amino]phenyl}sulfonyl)-2-(pyridin-3-yloxy)benzamide] | 67.69

Reference: US9125913B2, “Bcl-2-selective apoptosis-inducing agents for the treatment of cancer and immune diseases” (AbbVie Inc., priority 2008, dated 2015)
